Results from PMC5344293, “A phase 1 dose-escalation and expansion study of binimetinib (MEK162), a potent and selective oral MEK1/2 inhibitor” (British Journal of Cancer, 2017).
Entries after “also recorded” stand apart in the source; their conditions may differ. Like-named read-outs stand apart in the source and are kept apart here.

Legend:
[1] = Plasma pharmacokinetics in patients; type: in vivo, human; settings: for RAUC (accumulation ratio) / Cmax / AUC(0-t): geometric mean (% CV); for Cmax / AUC(0-t) / Tmax: human, plasma, oral
Procedure: Blood for plasma binimetinib and metabolite concentration assessments was collected on cycle 1 day 1 (pre-dose and 30 min to 24 h post dose), cycle 1 day 15 (pre-dose and 30 min to 8 h post dose), and cycles 2 to 8 day 1 (pre-dose) from patients in the dose-escalation phase and from selected patients in the biliary cancer cohort of the expansion phase (intensive pharmacokinetic sampling). The remaining patients in the expansion phase underwent limited pharmacokinetic sampling on cycle 1 day 1 (pre-dose), cycle 1 day 8 (pre-dose), cycle 1 day 15 (pre-dose and 30 min to 8 h post dose), cycle 2 day 1 (pre-dose), cycle 3 day 1 (pre-dose and 30 min to 8 h post dose), and cycles 4–8 day 1 (pre-dose). Standard non-compartmental pharmacokinetic parameters were calculated on serial pharmacokinetic collection days (cycle 1 day 1 and cycle 1 day 15 for the dose-escalation phase; cycle 1 day 15 and cycle 3 day 1 for the expansion phase) for each patient and summarised by cohort. Dose proportionality, accumulation, and metabolite-to-parent ratio were assessed as appropriate.

[2] = tested on: NRAS-mutant melanoma; parameters: method as in Dummer et al, 2016; settings: patients with NRAS-mutant melanoma; ref Dummer et al, 2016; cited from earlier work
[3] = tested on: xenograft models derived from melanoma, colorectal cancer, NSCLC, fibrosarcoma, cholangiocarcinoma, and pancreatic cancer; parameters: method as in Lee et al, 2010; Woessner et al, 2010; settings: non-clinical data, ref Lee et al, 2010, Woessner et al; cited from earlier work

Cn1cnc2c(F)c(Nc3ccc(Br)cc3F)c(C(=O)NOCCO)cc21 [binimetinib]
RAUC (accumulation ratio) ([1]; cycle 1 day 15, Total (N=26)): 1.44 (32.8)
RAUC (accumulation ratio) ([1]; cycle 1 day 15, expansion Biliary 60 mg BID (n=7)): 2.50 (NC)
Cmax ([1]; 30 mg BID, cycle 1 day 1, dose-escalation 30 mg BID (n=4)): 0.327 µg/mL
AUC(0-t) ([1]; 30 mg BID, cycle 1 day 1, dose-escalation 30 mg BID (n=4), intensive sampling, read-out: AUC0–8): 1 µg·h/mL
Tmax ([1]; 30 mg BID, cycle 1 day 1, dose-escalation 30 mg BID (n=4), median (minimum–maximum), read-out: tmax): 1.51 h
Tmax ([1]; 30 mg BID, cycle 1 day 15, dose-escalation 30 mg BID (n=4), median (minimum–maximum), read-out: tmax): 1.5 h
Cmax ([1]; 30 mg, cycle 1 day 15, dose-escalation 30 mg BID (n=4)): 0.417 µg/mL
Cmax ([1]; 45 mg BID, cycle 1 day 1, dose-escalation 45 mg BID (n=4)): 0.241 µg/mL
AUC(0-t) ([1]; 45 mg BID, cycle 1 day 1, dose-escalation 45 mg BID (n=4), intensive sampling, read-out: AUC0–8): 0.964 µg·h/mL
Tmax ([1]; 45 mg BID, cycle 1 day 1, dose-escalation 45 mg BID (n=4), median (minimum–maximum), read-out: tmax): 2.53 h
Tmax ([1]; 45 mg BID, cycle 1 day 15, dose-escalation 45 mg BID (n=4), median (minimum–maximum), read-out: tmax): 2 h
Cmax ([1]; 45 mg, cycle 1 day 15, dose-escalation 45 mg BID (n=4)): 0.273 µg/mL
AUC(0-t) ([1]; 45 mg, cycle 1 day 15, dose-escalation 45 mg BID (n=4), read-out: AUC0-8): 1.49 µg·h/mL
Cmax ([1]; 60 mg BID, cycle 1 day 1, dose-escalation 60 mg BID (n=7)): 0.545 µg/mL
AUC(0-t) ([1]; 60 mg BID, cycle 1 day 1, dose-escalation 60 mg BID (n=7), intensive sampling, read-out: AUC0–8): 1.71 µg·h/mL
Tmax ([1]; 60 mg BID, cycle 1 day 1, dose-escalation 60 mg BID (n=7), median (minimum–maximum), read-out: tmax): 1 h
Tmax ([1]; 60 mg BID, cycle 1 day 15, dose-escalation 60 mg BID (n=7), median (minimum–maximum), read-out: tmax): 3 h
Cmax ([1]; 60 mg, cycle 1 day 1, expansion Biliary 60 mg BID (n=7)): 0.365 µg/mL
AUC(0-t) ([1]; 60 mg, cycle 1 day 1, expansion Biliary 60 mg BID (n=7), intensive sampling, read-out: AUC0–8): 1.09 µg·h/mL
Tmax ([1]; 60 mg, cycle 1 day 1, expansion Biliary 60 mg BID (n=7), median (minimum–maximum), read-out: tmax): 1.5 h
Cmax ([1]; 60 mg, cycle 1 day 15, dose-escalation 60 mg BID (n=7)): 0.512 µg/mL
AUC(0-t) ([1]; 60 mg, cycle 1 day 15, dose-escalation 60 mg BID (n=7), read-out: AUC0-8): 1.82 µg·h/mL
Cmax ([1]; 60 mg, cycle 1 day 15, expansion Biliary 60 mg BID (n=7)): 0.594 µg/mL
AUC(0-t) ([1]; 60 mg, cycle 1 day 15, expansion Biliary 60 mg BID (n=7), read-out: AUC0-8): 3.76 µg·h/mL
Tmax ([1]; 60 mg, cycle 1 day 15, expansion Biliary 60 mg BID (n=7), median (minimum–maximum), read-out: tmax): 1.5 h
Cmax ([1]; 80 mg BID, cycle 1 day 1, dose-escalation 80 mg BID (n=4)): 0.687 µg/mL
AUC(0-t) ([1]; 80 mg BID, cycle 1 day 1, dose-escalation 80 mg BID (n=4), intensive sampling, read-out: AUC0–8): 2.22 µg·h/mL
Tmax ([1]; 80 mg BID, cycle 1 day 1, dose-escalation 80 mg BID (n=4), median (minimum–maximum), read-out: tmax): 2.02 h
Tmax ([1]; across all dose levels and both sampling schemes, read-out: tmax, median values): 0.5 to 4 h
Tmax ([1]; cycle 1 day 1, Total (N=26), median (minimum–maximum), read-out: tmax): 1.5 h
Tmax ([1]; cycle 1 day 15, Total (N=26), median (minimum–maximum), read-out: tmax): 1.5 h
Pre-dose concentrations on cycle 1 day 15 versus 12 h concentrations on day 1 ([1]; intensive pharmacokinetic sampling): up to threefold higher
Steady state ([1]; limited sampling, 45 and 60 mg BID, no formal steady-state analysis): likely at steady state by cycle 1 day 15
Dose proportionality of exposure ([1]; over the dose range tested, days 1 and 15 of cycle 1): Dose-proportional increases; also recorded: approximately dose proportional
PFS vs dacarbazine [2]: significantly longer PFS
Anti-tumour activity in xenograft models [3]: broad anti-tumour activity
